Laboratory results taken from patent US20140271605A1, “STABLE BIOACTIVE SUBSTANCES AND METHODS OF MAKING” (ADVANCED BIONUTRITION CORP., priority 2013, published 2014).

Test: Stability testing of the herbicides mixture suspension
Format: physicochemical
Conditions: 40° C. for 30 days
Description: Stability testing of the herbicides mixture suspension: The commercial solutions containing Glyphosate or Round-Up are mixed together, and tested along with the stable Round-Up and Glyphosate mixed suspensions of the present invention. The liquids placed in an oven at 40° C. for 30 days. The remaining activities of the herbicides in the samples are measured following standard protocols.

## O=C(O)CNCP(=O)(O)O [Glyphosate]
  remaining activity of the herbicide, free commercial solutions mixed together: No Glyphosate activity is detected
